Results taken from patent publication US12171766B2, “Methods of treating patients suffering from brain injury and methods of increasing the value of the extended Glasgow Outcome Scale of patients suffering from brain injury” (VERINOS OPERATIONS GMBH, priority 2021, dated 2024).

Tested on: adult intensive care patients with acute moderate and severe TBI
Test: NOSTRA phase III trial: Extended Glasgow Outcome Scale (eGOS) at 3 and 6 months, Ronopterin 17 mg/kg infused over 48 hours vs placebo, incl. post hoc subgroup analyses
Format: in vivo, human
Details: for Good Recovery (eGOS ≥ 7) at 6 months, Odds ratio, 95% CI / Improvement in eGOS from 3 to 6 months, at least + 1 eGOS level, Odds ratio, 95% CI / Good Recovery (eGOS ≥ 7) at 3 months, Odds ratio, 95% CI: vs placebo
Description: A phase III trial of Ronopterin infusion to adult TBI patients (18-60 years) with acute moderate and severe TBI was performed. Based on the results of the earlier phase II study, the NOSTRA (NO Synthase in TRAumatic Brain Injury) phase III trial was designed to detect clinically relevant differences in clinical outcome (Extended Glasgow Outcome Score at 6 months after injury) as primary endpoint.
NOSTRA III was a multicentre, prospective, two parallel groups, blinded, placebo-controlled, randomised phase III trial of Ronopterin infusion for 48 hours in adult intensive care patients with acute moderate and severe TBI. […] The detailed study protocol is described by Tegtmeier et al. Efficacy of Ronopterin (VAS203) in Patients with Moderate and Severe Traumatic Brain Injury (NOSTRA phase III trial): study protocol of a confirmatory, placebo-controlled, randomised, double blind, multi-centre study. Trials. 2020. A total of 224 evaluable patients with moderate and severe TBI were enrolled in 32 centres in Austria, France, Germany, Spain, and United Kingdom. The trial started on 24 Aug. 2016 with last-patient last-visit on 17 Jun. 2020.
Patients between 18 and 60 years of age with Glasgow Coma Score≥3 requiring intracranial pressure (ICP) monitoring were enrolled. Other inclusion criteria were TBI within the last 18 hours but at least 6 hours after the injury, which were expected to survive more than 24 hours after admission.
Ronopterin and placebo (0.9% saline) were infused continuously via central venous catheter at a constant rate. A total dose of 17 mg/kg body weight of Ronopterin was infused for 48 hours (daily dose 8.5 mg/kg body weight).
The primary outcome was the difference between eGOS in Ronopterin and placebo treated patients at 6 months after trauma. The eGOS was determined by a face to face meeting by trained assessors.
The null-hypothesis of no shift across the 8 ordered categories of eGOS for the two treatment groups was tested after six months based on a proportional odds model stratified by age (18-39 years and 40-60 years). The treatment effect was estimated using ordinal Logistic regression model as the (proportional) odds ratio of Ronopterin versus Placebo. Treatment and age (18-39 years and 40-60 years) were included in the model. The proportional odds assumption was tested using a Chi-Square Score Test.
As secondary efficacy endpoint the eGOS at 3 months was analysed using the same statistics.
The main objective of the post hoc analyses was to estimate the effect size of VAS203 compared with placebo for the primary endpoint eGOS-I in the subgroups time to infusion ≤12 hours and >12 hours. Supportive analyses were conducted by age group (<40 years, ≥40 years) because age group was used as a stratification factor in the study. Comparability between treatment groups regarding demographics as well as severity and location of disease was investigated using similar methods as in the main CSR.
The proportions of patients per eGOS-I level at 3 months and at 6 months were calculated. For the change in eGOS-I over time, the proportion of patients with changes from 3 to 6 months were calculated by eGOS-I level, and in addition categorised as decreased (i.e. any decrease in eGOS-I level from 3 to 6 months), unchanged (i.e. no change in eGOS-I level from 3 to 6 months), and increased (i.e. any increase in eGOS-I level from 3 to 6 months).
Ordinal logistic regression was used for the analysis of eGOS-I at 3 months and at 6 months, including treatment group and age group (<40 years, ≥40 years) as factors in the model. Estimated odds ratios for the comparison of the VAS203 and placebo groups of >1 mean that eGOS-I was higher in the VAS203 group than in the placebo group across the 8 levels, whereas odds ratios of <1 mean that eGOS-I was lower in the VAS203 group than in the placebo group. Odds ratios together with their 95% CIs were used to estimate and assess the size of the treatment effect of VAS203 compared to placebo. […]

CC(O)C(O)C1CNc2nc(N)nc(N)c2N1 [Ronopterin, 4-Amino-(6R,S)-5,6,7,8-tetrahydro-L-biopterin] was tested, and the “Good Recovery (eGOS ≥ 7) at 6 months, Odds ratio, 95% CI” value (All females 40-60 years (so in the source), >12 hours) was 5.5 (0.6-53);, the “Good Recovery (eGOS ≥ 7) at 6 months, Odds ratio, 95% CI” value (All females, all times to infusion) was 2.8 (0.6-12.6); n = 44 and the “Improvement in eGOS from 3 to 6 months, at least + 1 eGOS level, Odds ratio, 95% CI” value (“Improvement in eGOS … Odds ratio, 95% CI” below) (All males 18-60 years and young females 18-39 years, ≤12 hours) was 3.4 (1.2-10.2);. For the same compound, the “Improvement in eGOS … Odds ratio, 95% CI” value (All males 18-60 years, ≤12 hours) was 3.7 (1.1-12);, the “Good Recovery (eGOS ≥ 7) at 6 months, Odds ratio, 95% CI” value (All males plus females 18-39 years, ≤12 hours) was 2.4 (0.8-7.6); and the “Good Recovery (eGOS ≥ 7) at 3 months, Odds ratio, 95% CI” value (Female, 18-39 years, >12 hours) was 6.5 (0.27-161);. The “Good Recovery (eGOS ≥ 7) at 6 months, Odds ratio, 95% CI” value (Female, 18-39 years, >12 hours) was 2.3 (0.2-33);, the “Improvement in eGOS … Odds ratio, 95% CI” value (Female, 18-39 years, >12 hours) was 0.3 (0.04-2.8); and the “Good Recovery (eGOS ≥ 7) at 3 months, Odds ratio, 95% CI” value (Female, 18-39 years, ≤12 hours) was 1.5 (0.06-41);. The “Good Recovery (eGOS ≥ 7) at 6 months, Odds ratio, 95% CI” value (Female, 18-39 years, ≤12 hours) was 6.0 (0.2-163);, the “Improvement in eGOS … Odds ratio, 95% CI” value (Female, 18-39 years, ≤12 hours) was 1.5 (0.06-41); and the “Good Recovery (eGOS ≥ 7) at 3 months, Odds ratio, 95% CI” value (Female, 40-60 years, >12 hours) was 4.2 (0.2-102);. For the same compound, the “Good Recovery (eGOS ≥ 7) at 6 months, Odds ratio, 95% CI” value (Female, 40-60 years, >12 hours) was 6.2 (0.3-147);, the “Improvement in eGOS … Odds ratio, 95% CI” value (Female, 40-60 years, >12 hours) was 1.3 (0.1-18); and the “Good Recovery (eGOS ≥ 7) at 3 months, Odds ratio, 95% CI” value (Female, 40-60 years, ≤12 hours) was 1.3 (0.02-83);. The “Good Recovery (eGOS ≥ 7) at 6 months, Odds ratio, 95% CI” value (Female, 40-60 years, ≤12 hours) was 0.3 (0.01-11.3);, the “Improvement in eGOS … Odds ratio, 95% CI” value (Female, 40-60 years, ≤12 hours) was 0.3 (0.01-11.3); and the “Good Recovery (eGOS ≥ 7) at 3 months, Odds ratio, 95% CI” value (Females 18-39 years, all times to infusion) was 4.2 (0.4-47); n = 23. The “Good Recovery (eGOS ≥ 7) at 3 months, Odds ratio, 95% CI” value (Females 40-60 years, all times to infusion) was 5.7 (0.3-126); n = 21, the “Good Recovery (eGOS ≥ 7) at 3 months, Odds ratio, 95% CI” value (Male, 18-39 years, >12 hours) was 0.2 (0.03-0.85); and the “Improvement in eGOS … Odds ratio, 95% CI” value (Male, 18-39 years, >12 hours) was 0.7 (0.2-1.9);. For the same compound, the “Good Recovery (eGOS ≥ 7) at 6 months, Odds ratio, 95% CI” value (Male, 18-39 years, time to infusion >12 hours) was 0.6 (0.2-1.6);, the “Good Recovery (eGOS ≥ 7) at 6 months, Odds ratio, 95% CI” value (Male, 18-39 years, time to infusion ≤12 hours) was 1.4 (0.3-5.9); and the “Good Recovery (eGOS ≥ 7) at 3 months, Odds ratio, 95% CI” value (Male, 18-39 years, ≤12 hours) was 0.4 (0.08-2.2);. The “Improvement in eGOS … Odds ratio, 95% CI” value (Male, 18-39 years, ≤12 hours) was 5.4 (1.1-26);, the “Good Recovery (eGOS ≥ 7) at 3 months, Odds ratio, 95% CI” value (Male, 40-60 years, >12 hours) was 0.2 (0.02-1.4); and the “Good Recovery (eGOS ≥ 7) at 6 months, Odds ratio, 95% CI” value (Male, 40-60 years, >12 hours) was 0.6 (0.2-2.2);. The “Improvement in eGOS … Odds ratio, 95% CI” value (Male, 40-60 years, >12 hours) was 0.98 (0.3-2.8);, the “Good Recovery (eGOS ≥ 7) at 3 months, Odds ratio, 95% CI” value (Male, 40-60 years, ≤12 hours) was 0.7 (0.01-38); and the “Good Recovery (eGOS ≥ 7) at 6 months, Odds ratio, 95% CI” value (Male, 40-60 years, ≤12 hours) was 9.0 (0.4-194);. For the same compound, the “Improvement in eGOS … Odds ratio, 95% CI” value (Male, 40-60 years, ≤12 hours) was 2.3 (0.4-14.6);, the “increase in eGOS levels from 3 to 6 months” value (from here on “increase in eGOS levels”) (age 18-39 years, >12 hours (FIG. 7E)) was “up to 3 levels” and the “number of patients with increase in eGOS by at least 2 levels from 3 to 6 months” value (from here on “number of patients with increase in eGOS”) (age 18-39 years, >12 hours (FIG. 7G)) was 10. For the same compound, the “less patients with decrease in eGOS over time vs placebo: significance” value (age 18-39 years, all times to infusion) was “not significant”, the “increase in eGOS levels” value (age 18-39 years, all times to infusion (FIG. 6A)) was “up to 3 levels” and the “number of patients with increase in eGOS” value (age 18-39 years, all times to infusion (FIG. 6C)) was 14. For the same compound, the “more patients with higher increase in eGOS over time vs placebo: significance” value (age 18-39 years, all times to infusion (FIG. 6D)) was “not significant”, the “increase in eGOS levels” value (age 18-39 years, ≤12 hours (FIG. 7A)) was “up to 3 levels” and the “increase in proportion of patients with an eGOS increase by at least 1 level compared to Placebo: significance” value (age 18-39 years, ≤12 hours (FIG. 7B, 7D)) was “significant”. For the same compound, the “number of patients with increase in eGOS” value (age 18-39 years, ≤12 hours (FIG. 7C)) was 4, the “increase in eGOS levels” value (age 40-60 years, >12 hours (FIG. 9E)) was “up to 4 levels” and the “number of patients with increase in eGOS” value (age 40-60 years, >12 hours (FIG. 9G)) was 5. The “less patients with a decrease in eGOS over time vs placebo: significance” value (age 40-60 years, all times to infusion) was “not (statistically) significant” and the “increase in eGOS levels” value (age 40-60 years, all times to infusion (FIG. 8A)) was “up to 4 levels”.
